Test results: patent US5200422A, “Benzimidazole derivatives, their preparation and use” (priority 1991, dated 1993)
Read-outs that look alike come from different tables or passages of the source.

Assays:
Format in all cases: cell-based
BKCa channel [1] = biological target: BKCa channel (Bos taurus, UniProt Q28204); experiment: Patch-clamp, cultured bovine aortic smooth muscle cells
Method: (§1) All experiments were performed with patch-clamp technique (Hamill et al., Pflugers Arch. 391, 85-100 (1981). The ion composition of the internal solution was (in mM) 4 NaCl, 140 KCl, 1 CaCl2, 1 MgCl2, 2 EGTA, 10 HEPES and the external solution contained 140 NaCl, 4 KCl, 2 CaCl2, 1 MgCl2 and 10 HEPES.

BKCa channel [2] = experiment: Single channel experiments, inside-out patches of cerebellar granule cell membrane
Method: as §1
In inside-out patches of cerebellar granule cell membrane single BKCa channels were activated by for example 5-trifluoromethyl-1-(5-chloro-2-hydroxyphenyl)-1,3-dihydro-2H-benzimidazole-2-one (3-10 μM), 5-trifluoromethyl-I-(2-hydroxyphenyl)-1,3-dihydro-2H-benzimidazole-2-one ([…]), 5-trifluoromethyl-1-(5-phenyl-2-hydroxyphenyl)-1,3-dihydro-2H-benzimidazole-2-one (3-30 μM). […] No effect was found on the delayed rectifier K^+ channel or on the Cl^- channels also present in the patches.
(§2) The BKCa channel in granule cells has been studied in symmetric 144 mM K^+, and under these conditions the average conductance is 154 pS (76 pS with 4 mM external K^+).

[3] = tested on: N1E-115 neuroblastoma cells; experiment: Whole cell recordings: membrane potential in current clamp mode; conditions: 30 μM to the bath
Method: as §1
The membrane potential of N1E-115 neuroblastoma cells was determined in whole-cell recordings using current clamp mode (HEKA EPC-9 patch-clamp amplifier) Due to the high-resistance seal and the large size of these cells, the recorded membrane potential stayed stable for periods of 30-60 min, although at somewhat depolarized values (-15--60 Mv).
The equilibrium potentials for K^+, Cl^-, and Na^+ in these experiments were -90 mV, 0 mV, and +90 mV, respectively (cf. ion composition above) Thus, since potassium is the only ion having a reversal potential more negative than the resting membrane potential, the observed hyperpolarization induced by the test compound must be explained through an increased potassium conductance.

160-180 pS BKCa channel = experiment: Patch-clamp, cultured guinea pig tracheal smooth muscle cells
Method: as §1

BKCa channel [4] = experiment: Outside-out patches of granule cells, channel block; conditions: silent periods interdispersed with periods of low or normal activity
Method: as §1, §2

Sequence of BKCa channel (Bos taurus, UniProt Q28204) (Q28204 whole entry): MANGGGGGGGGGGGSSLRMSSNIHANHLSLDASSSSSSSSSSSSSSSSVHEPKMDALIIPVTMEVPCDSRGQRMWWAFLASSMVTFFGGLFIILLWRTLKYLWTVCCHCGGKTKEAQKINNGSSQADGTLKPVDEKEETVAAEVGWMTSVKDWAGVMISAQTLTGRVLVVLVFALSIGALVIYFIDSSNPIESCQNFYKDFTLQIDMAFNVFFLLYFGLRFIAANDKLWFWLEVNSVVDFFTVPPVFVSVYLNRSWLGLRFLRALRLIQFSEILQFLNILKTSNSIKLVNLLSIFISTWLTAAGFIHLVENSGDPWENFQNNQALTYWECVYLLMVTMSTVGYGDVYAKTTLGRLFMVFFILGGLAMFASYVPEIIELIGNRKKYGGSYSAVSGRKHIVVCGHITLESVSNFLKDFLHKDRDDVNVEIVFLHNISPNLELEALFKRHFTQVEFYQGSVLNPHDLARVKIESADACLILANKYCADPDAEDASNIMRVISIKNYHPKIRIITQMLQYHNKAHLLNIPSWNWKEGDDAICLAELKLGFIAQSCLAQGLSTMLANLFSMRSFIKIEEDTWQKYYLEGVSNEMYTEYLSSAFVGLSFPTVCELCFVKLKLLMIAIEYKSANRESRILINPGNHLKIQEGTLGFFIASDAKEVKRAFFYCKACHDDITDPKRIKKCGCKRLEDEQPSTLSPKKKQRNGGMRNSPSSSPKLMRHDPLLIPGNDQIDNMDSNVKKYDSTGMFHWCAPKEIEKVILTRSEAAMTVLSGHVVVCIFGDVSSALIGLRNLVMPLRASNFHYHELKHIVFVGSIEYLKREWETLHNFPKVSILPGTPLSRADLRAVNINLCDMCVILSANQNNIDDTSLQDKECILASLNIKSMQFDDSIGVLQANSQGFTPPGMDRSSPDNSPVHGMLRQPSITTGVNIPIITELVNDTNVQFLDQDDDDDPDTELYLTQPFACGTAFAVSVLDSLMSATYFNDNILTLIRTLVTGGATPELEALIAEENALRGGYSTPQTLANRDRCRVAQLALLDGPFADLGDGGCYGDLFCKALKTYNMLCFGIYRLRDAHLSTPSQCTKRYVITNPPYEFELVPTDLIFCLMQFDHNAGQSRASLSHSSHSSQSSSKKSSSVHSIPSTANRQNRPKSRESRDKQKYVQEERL
Sequence of BKCa channel (Bos taurus, UniProt Q28204) (Q28067 whole entry partner): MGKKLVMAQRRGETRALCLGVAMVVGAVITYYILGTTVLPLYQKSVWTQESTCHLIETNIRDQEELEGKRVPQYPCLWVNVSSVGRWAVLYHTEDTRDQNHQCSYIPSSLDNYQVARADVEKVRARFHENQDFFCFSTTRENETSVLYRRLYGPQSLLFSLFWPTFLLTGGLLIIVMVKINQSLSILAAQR

O=c1[nH]c2cc(C(F)(F)F)c([N+](=O)[O-])cc2n1-c1cc(Cl)cc([N+](=O)[O-])c1O [1,3-dihydro-1-(5-chloro-3-nitro-2-hydroxyphenyl)-5-trifluoromethyl-6-nitro-2H-benzimidazol-2-one] was tested. Which “activation of the BKCa channel” value (BKCa channel [1]; 1-3 μM) did it give?
The value was “significantly activated”.

What does the source list for O=c1[nH]c2cc(C(F)(F)F)ccc2n1-c1cc(-c2ccccc2)ccc1O [1,3-dihydro-1-(5-phenyl-2-hydroxyphenyl)-5-trifluoromethyl-2H-benzimidazol-2-one]?
activation of the BKCa channel (BKCa channel [1]; 3-30 μM): significantly activated; activation of single BKCa channels (BKCa channel [2]; 3-30 μM): activated

Which “activation of the BKCa channel” value (BKCa channel [1]; 3-30 μM) does the source give for O=c1[nH]c2cc(Cl)c(Cl)cc2n1-c1cc(Cl)ccc1O [1,3-dihydro-1-(5-chloro-2-hydroxyphenyl)-5,6-dichloro-2H-benzimidazole-2-one] here?
Its value is “significantly activated”.

With O=c1[nH]c2cc(C(F)(F)F)ccc2n1-c1cc(Cl)ccc1O [1-(5-chloro-2-hydroxyphenyl)-5-trifluoromethyl-1,3-dihydro-2H-benzimidazol-2-one] as the compound, how does the “activation of the BKCa channel” value (BKCa channel [1]; 3-30 μM) read?
Its value is “significantly activated”.

And the “activation of single BKCa channels” value (BKCa channel [2]; 3-10 μM)?
The value was “activated”.

What about the “delay before hyperpolarization of the cells” value [3] of the same compound?
Its value is 1 to 3 min.

What about the average hyperpolarization ([3]; current clamp, SD=-5 Mv, n=8) of the same compound?
The average hyperpolarization was -14 Mv.

And the “activation of the BKCa channel” value (160-180 pS BKCa channel)?
Its value is “potently activated”.

O=c1[nH]c2cc(C(F)(F)F)ccc2n1-c1cc2ccccc2cc1O [1,3-dihydro-1-(3-hydroxy-2-naphthyl)-5-trifluoromethyl-2H-benzimidazol-2-one] was tested. Which “activation of the BKCa channel” value (BKCa channel [1]; 3-30 μM) did it give?
Its value is “significantly activated”.

Oc1ccccc1-n1c(=S)[nH]c2cc(C(F)(F)F)ccc21 [1,3-dihydro-1-(2-hydroxyphenyl)-5-trifluoromethyl-2H-benzimidazole-2-thion] was tested. Which “activation of the BKCa channel” value (BKCa channel [1]; 3-30 μM) did it give?
The value was “significantly activated”.

For Charybdotoxin, which “block of the BKCa channel” value (BKCa channel [4]) is on record?
The value was “blocks the channel”.

For O=c1[nH]c2cc(C(F)(F)F)ccc2n1-c1ccccc1O [5-trifluoromethyl-1,3-dihydro-1-(2-hydroxyphenyl)-2H-benzimidazol-2-one], which “activation of single BKCa channels” value (BKCa channel [2]) is on record?
The value was “activated”.
